Data taken from BigSolDB 2.1.

Cc1ccc(NC(=O)C(C)Cl)cc1 (stereo not given)
Conditions | solubility (mole fraction)
in 2-butanone, 271.23 K | 0.0774
in 2-butanone, 275.52 K | 0.0829
in 2-butanone, 280.9 K | 0.0892
in 2-butanone, 285.45 K | 0.105
in 2-butanone, 291.46 K | 0.115
in 2-butanone, 296.73 K | 0.128
in 2-butanone, 302.41 K | 0.13
in 2-butanone, 307.63 K | 0.149
in 2-butanone, 313.15 K | 0.173
in 2-butanone, 319.11 K | 0.208
in acetone, 271.96 K | 0.0616
in acetone, 283.37 K | 0.0767
in acetone, 287.02 K | 0.0811
in acetone, 290.81 K | 0.0861
in acetone, 294.37 K | 0.0917
in acetone, 300.04 K | 0.105
in acetone, 302.89 K | 0.114
in acetone, 307.95 K | 0.136
in acetone, 310.94 K | 0.15
in acetone, 315.55 K | 0.155
in toluene, 273.24 K | 0.00517
in toluene, 278.33 K | 0.00719
in toluene, 285.5 K | 0.00929
in toluene, 290.93 K | 0.0125
in toluene, 297.29 K | 0.0168
in toluene, 301.24 K | 0.02
in toluene, 307.73 K | 0.0278
in toluene, 312.06 K | 0.0356
in toluene, 315.66 K | 0.0413
in toluene, 321.66 K | 0.0579
